Source: EP1430879A2, “Arylsulfatase inhibitors in deodorants and antiperspirants” (Henkel Kommanditgesellschaft auf Aktien, priority 2002, dated 2004)

Molecular target: T1, Arylsulfatase (EC 3.1.6.1) aus Aerobacter aerogenes (Klebsiella aerogenes, UniProt P20713)
T1 construct: purchased Sigma S-1629
T1 sequence (P20713 21-464): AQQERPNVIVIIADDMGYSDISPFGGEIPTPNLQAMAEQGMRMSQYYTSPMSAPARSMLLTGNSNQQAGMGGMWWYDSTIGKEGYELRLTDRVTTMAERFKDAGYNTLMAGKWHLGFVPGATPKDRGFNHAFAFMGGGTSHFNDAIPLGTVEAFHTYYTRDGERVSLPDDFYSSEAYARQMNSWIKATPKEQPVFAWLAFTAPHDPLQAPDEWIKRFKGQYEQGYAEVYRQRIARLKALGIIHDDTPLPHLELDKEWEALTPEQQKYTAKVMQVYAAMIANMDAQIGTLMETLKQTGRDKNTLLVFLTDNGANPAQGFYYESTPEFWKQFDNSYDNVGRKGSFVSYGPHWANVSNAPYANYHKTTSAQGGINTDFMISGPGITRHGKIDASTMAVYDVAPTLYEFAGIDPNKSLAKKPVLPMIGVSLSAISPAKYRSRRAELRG
Assay: Arylsulfatase enzyme inhibition test (Sigma sulfatase assay S-1629, p-nitrophenyl sulfate substrate, spectrophotometric at 420 nm)
Format: biochemical
Settings: raw material as supplied in aqueous solution; 187 mM Tris/HCl pH 7,1, 8 mM pNPS, 0,05 U/ml Arylsulfatase, 37°C
Excerpt: Da die hautrelevante Arylsulfatase nicht zur Verfügung stand, diente eine handelsübliche Arylsulfatase (EC 3.1.6.1) aus Aerobacter aerogenes als Modellenzym, um die Hemmwirkung der erfindungsgemäß verwendeten Inhibitoren zu testen. Die Tests wurden mit dem Sulfatase-Enzymassay Product No. S-1629 von Sigma gemäß den Angaben im Sigma Quality Control Test Procedure-Datenblatt durchgeführt. Als Referenz-Inhibitoren dienten Ascorbinsäure und ATP.
Zur Auswertung wurde die Arylsulfatase-katalysierte Bildung von p-Nitrophenol aus dem Substrat p-Nitrophenylsulfat (pNPS) spektrophotometrisch (λ = 420 nm) verfolgt. Die Reaktionslösungen von 1000 µl, die auf eine Reaktionstemperatur von 37°C temperiert wurden, enthielten 187 mM Tris/HCl (pH 7,1), 8 mM pNPS und eine Startkonzentration von 0,05 U/ml Arylsulfatase. Die Einheit U der Enzymaktivität wurde so definiert, dass 1 U Sulfatase 1,0 µmol pNPS pro Minute bei pH 7,1 und 37°C hydrolysiert. Die Testdurchführung ist auch offenbart bei H.R. Fowler und D. H. Rammler, Biochemistry 3, 230, 1964.
Die Reaktion wurde durch Zugabe des Enzyms gestartet und der Anstieg der Absorption bei λ = 420 nm über 5 Minuten verfolgt. Der lineare Anstieg der Absorption (A) pro Zeiteinheit (t) ist hierbei ein Maß für die Aktivität des Enzyms (ΔA/Δt). Die Aktivität des Enzyms in Abwesenheit eines Inhibitors, (ΔA1/Δt1 ), wurde als Referenz gleich 100% gesetzt. […]

## COc1cc2c(cc1O)CCC(C)(C)O2 [Lipochroman-6, 3,4-Dihydro-7-methoxy-2,2-dimethyl-2H-1-benzopyran-6-ol]
  Konzentration mit einer inhibierenden Wirkung von 50 %: 0,1 Gew.-% Rohstoff tel quel in wässriger Lösung
